Measurements published in patent US12258299B2, “Permanent eco-fertilizer against fruit physiological disorders and pests” (S.A. Reverté Productos Minerales, priority 2019, dated 2025).

Experiments:
[1] = Salt index of the fertilizer; assay type: physicochemical
Golden apple pulp = assay: Foliar fertilization of the pulp of Golden apples; assay type: in vivo; details: 30 kg/Ha, treatment last week of April
Procedure: A first experiment was carried out to measure the foliar fertilization of Golden apples. The treatment was carried out the last week of April using a 3% weight suspension of the fertilizer as claimed in water (30 kg/1000 l water/Ha).

Structure (SMILES): [Ca+2].[Cl-].[Cl-] [CaCl2, calcium chloride]
- salt index [1]: 87
- Calcium (Golden apple pulp): 24 ppm
